The source of these data is patent US20190314297A1, “COMBINATION THERAPY OF CBD AND COPAXONE” (TO PHARMACEUTICALS LLC, priority 2016, published 2019).

Entries after “also recorded” stand apart in the source; their conditions may differ. Like-named read-outs stand apart in the source and are kept apart here.

For series [1], the system named is infiltration of immune cells into the spinal cord. Put plainly: Histology of immune cell infiltration into the spinal cord in EAE mice (eosin/hematoxylin). Type of series: in vivo, SJL female mice. The settings on record: sixty days following injection of PLP; vs control non-treated mice. The method, then: (§1) Histology Following s.c. injection of PLP (139-151) mixed with CFA as well as two pertussis-toxin injections and appearance of paralysis signs in the mice (usually after 9-11 days after initiation of EAE) treatment of mice began.
(§2) The treatments were given daily, five times a week and usually continued for about 60 days. GA were given s.c. (at an injection dose of 1 mg/mouse), and CBD at a dose of 5 mg/kg were administrated i.p. (intraperitoneal).
Studies of monotherapies (CBD or Copaxone) and the combination therapy (CBD plus Copaxone) also included histological studies of infiltration of immune cells into the spinal cord in EAE mice (i.e., MS core pathology).

A further series relates to EAE model in mice. Kind of series: Suppression of PLP (139-151)-induced relapsing-remitting EAE, daily clinical score. Type of series: in vivo, SJL/J female mice. The settings on record: monotherapy vs control (vehicle); CBD 5 mg/kg i.p., Copaxone 1 mg/mouse s.c., daily five times a week; FIG. 1-3.
Text: SJL/J female mice were purchased from Harlen. Mice at the age of 6-7 weeks old were used to the in the experiments described below. All the experiments were done in accordance with the protocol approved by the Ethics Committee of the Hebrew University of Jerusalem. The mice were housed in cages with free access to food and water. They were maintained in 12 hr. light/dark cycle at room temperature.
Mice were immunized with PLP (139-151) emulsified in CFA together with pertussis vaccine according to the method described in Hooke Laboratories protocols (http://hookelabs.com/protocols/eaeAISJL). PLP is used to induce relapsing-remitting (RR)-EAE model. In the EAE experiments, SJL/J female mice at an age of 6-7 weeks old were used. Mice were observed daily for the appearance of neurological paralytic symptoms (6-7 mice/group), and were scored in scale from 0-5 denoting as follows:
Raw p-value were obtained from exact one-tail Mann Whitney tests and adjusted for multiple comparisons (within each experiment) using Holm modification of the Bonferroni correction
as §1
The treatments were given daily, five times a week and usually continued for about 60 days. […]

The subject of series [2] is skin at the site of subcutaneous Copaxone injection. Put plainly: Cutaneous wound at the site of repeated s.c. Copaxone injection in EAE mice. Type of series: in vivo, SJL/J female mice. The method, then:
as §2
In mice treated with the Copaxone only (2 out of 7 mice), a skin lesion developed on the back at the site of repeated Copaxone injections.

Series [3] deals with acute EAE. The settings on record: oral GA, rhesus monkeys; cited from earlier work.
Series [4] deals with acute EAE. The settings on record: oral GA, mice; cited from earlier work.
Series [5] deals with acute EAE. The settings on record: oral GA, rats; cited from earlier work.

As to `C=C(C)[C@@H]1CCC(C)=C[C@H]1c1c(O)cc(CCCCC)cc1O` [CBD, 2-[(1R,6R)-6-isopropenyl-3-methylcyclohex-2-en-1-yl]-5-pentylbenzene-1,3-diol], the “infiltration of immune cells into the white section of the spinal cord” value in series [1] is “almost total reduction of such infiltration”. Moreover, the clinical score result in the series on EAE model in mice was “significant decrease in clinical score; also recorded: significantly decreased clinical score”. For the same molecule, the “skin lesions (cutaneous wound) at the injection site, in words” value in series [2] (CBD 5 mg/kg i.p. with or without Copaxone 1 mg/mouse s.c.) was “No suchlesions were observed”.

As to Glatiramer acetate [Copaxone], the “effect on acute EAE” value in the series with acute EAE [3], in the series with acute EAE [4] and with acute EAE [5] was “suppress acute EAE” throughout. The “infiltration of immune cells into the white section of the spinal cord” value in series [1] is “almost total reduction of such infiltration”. Also, in the series with EAE model in mice, the clinical score result is “significantly decreased clinical score”. Further, the “skin lesion developed at the site of repeated Copaxone injections (incidence)” value in series [2] (Copaxone only, 1 mg/mouse s.c.) is 2 out of 7.
